Assay results reported in patent publication EP0318138A1, “Use of inorganic fluorides and nitrogen heterocyclics for enhancement of fluoride uptake in teeth” (SHISEIDO COMPANY LIMITED, priority 1987, dated 1989).

Experiments:
[1] = Experiment 2: decalcification in acidic gelatin gel observed by microradiography; parameters: species or system bovine; conditions: 4W in acidic gelatin gel
Protocol: (§1) A fluoride compound, and pyridoxine hydrochloride, 3-pyridylcarbinol or thiamine hydrochloride were added to distilled water, in amounts shown in table 4 to produce preparations. A bovine tooth (which had been ground to remove 200 µm of the surface and expose the enamel surface) was incubated in each preparation at 37°C for 5 minutes and in a calcifying solution at 37°C for 60 minutes, and then washed with tap water and dried. The fluorine concentration in the enamel of the fluoride-treated bovine tooth was determined by enamel biopsy. […] Considerable decalcification. x ... No inhibition of decalcification.

[2] = Experiment 2: fluorine concentration in enamel of treated tooth by enamel biopsy; parameters: species or system bovine
Protocol: as §1

[3] = Experiment 1: fluorine concentration in treated synthetic hydroxyapatite powder (microdiffusion analysis); conditions: pH 4.5, 37°C 5 minutes, then calcifying solution 60 minutes
Protocol: (§2) Sodium fluoride and the heterocyclic compounds or the fatty acid ester (for comparison) listed in Tables 1 to 3 were added to an distilled water in the amounts shown in Tables 1 to 3, and the pH of the solution was adjusted to 4.5 with dilute hydrochloride or sodium hydroxide to form several preparations. Synthetic hydroxyapatite powder was incubated in each of the preparations at 37°C for 5 minutes and in a calcifying solution at 37°C for 60 minutes, and then filtrated and dried. The fluorine concentration in the treated synthetic hydroxyapatite powder was determined by microdiffusion analysis, and the amount of dissolved calcium after incubating the treated powder in an acetate buffer at 37°C for 60 minutes was measured. The inhibition (%) of decalcification was then calculated by the following equation, to evaluate the acid resistance thereof. [drawing 3]

[4] = Experiment 1: inhibition of decalcification (dissolved calcium from treated powder in acetate buffer); conditions: acetate buffer 37°C 60 minutes
Protocol: as §2

[F-].[Na+] [Sodium fluoride]
Inhibition of decalcification [1]: ○
F conc. in enamel ([2]; 1st Etch): 498 ppm
F conc. in enamel ([2]; 2nd etch): 309 ppm
F conc. in enamel ([2]; 3rd etch): 222 ppm
F conc. in enamel ([2]; 4th etch): 178 ppm
F conc. in enamel ([2]; 5th etch): 139 ppm
Fluorine concentration (ppm) ([3]; Sodium fluoride 0.2 %, pyridoxine hydrochloride 0 %): 4910 ppm
Fluorine concentration (ppm) ([3]; Table 2, preparations in distilled water): 4910 ppm
Fluorine concentration (ppm) ([3]; Table 3, preparations in distilled water): 4796 ppm
Inhibition of decalcification (%) ([4]; Sodium fluoride 0.2 %, pyridoxine hydrochloride 0 %, pH 4.5): 40.9%
Inhibition of decalcification (%) ([4]; Table 2, preparations pH 4.5): 40.9%
Inhibition of decalcification (%) ([4]; Table 3, preparations pH 4.5): 40.9%
